Laboratory results as given in paper PMC9243336, “Santalol Isomers Inhibit Transthyretin Amyloidogenesis and Associated Pathologies in Caenorhabditis elegans” (Frontiers in Pharmacology, 2022).

Tests used:
[1] = target: T1, Transthyretin (TTR, prealbumin), wild type (Homo sapiens, UniProt P02766); experiment: acid-induced (pH […] h) aggregation turbidity; urea denaturation by Trp fluorescence; type: biochemical
T1 construct: homotetramer; prealbumin from human plasma

Transthyretin (TTR) V30M = Transthyretin (TTR) V30M (Homo sapiens, UniProt P02766, V50M); experiment: as above; type: biochemical

Which results are given for `C=C1[C@@H]2CC[C@@H](C2)[C@@]1(C)CC/C=C(/C)CO` [β-santalol]?
EC50 [1]: 31.1 ± 2.4 µM; EC50 (Transthyretin (TTR) V30M): 34.5 ± 2.8 µM

Which EC50 [1] does the source give for `C/C(=C/CC[C@@]1(C)C2C[C@@H]3[C@H](C2)C31C)CO` [α-santalol] here?
Its EC50 is 36.7 ± 1.2 µM.

What about the EC50 (Transthyretin (TTR) V30M) of the same compound?
The EC50 was 44.3 ± 3.5 µM.
